Measured values taken from patent US9221861B2, “Multivalent [beta]-1-2-linked mannose oligosaccharides as immunostimulatory compounds and uses thereof” (ABO AKADEMI UNIVERSITY, priority 2011, dated 2015).
“Also recorded” adds a separate entry of the source.

Assays:
Type in all cases: cell-based, human
[1] = tested on: peripheral blood mononuclear cells (PBMC); assay: Induction of cytokines by synthetic β-1,2-linked mannooligosaccharide compounds in PBMC (Example 1); settings: PBMC of three atopic subjects, 72 h, 20 and 200 μg/ml (FIG. 5), LINCOplex/Luminex
Protocol: (§1) The human PBMC were isolated from heparinized blood samples with Ficoll (Ficoll-Paque, Amersham Pharmacia Biotech, Sweden) density gradient centrifugation. The PBMC were washed twice with Hanks' balanced salt solution (HBSS) and suspended in RPMI medium supplemented 5% autologous serum, 2 mM L-glutamine (Fluka Biochemica, Germany) and 100 µg/ml gentamycin (Biological Industries, Israel). The cell suspension was diluted in the RPMI-based culture medium to 10^6 cells/ml and applied on 48-well culture plates (Costar, Cambridge, Mass., USA).
The synthetic oligosaccharides were tested for the production of cytokines IL-4, IL-5, IL-10 and IFN-γ, in peripheral blood mononuclear cells (PBMC) samples of three atopic subjects. The PBMC were stimulated by adding solubilized oligosaccharides in cell culture suspension. The synthetic polyvalent β-1,2-linked oligosaccharides used in this example are a molecule according to the compound of formula (IV) of the invention (coded CM-C8-2010), trivalent monosaccharide (R═H) coded CM-C4-2010 and pentavalent disaccharide (R═O) coded CM-C7-2010. The cytokine responses from PBMC were detected 72 h after beginning of the stimulation by measuring cytokine secretion with high-sensitivity human cytokine LINCOplex™-kits (LINCO Research, St. Charles, Mo., USA) using Luminex^100™ instrumentation. The assays were performed in accordance with the manufacturer's protocol by employing Luminex technology.

[2] = tested on: allergen (birch) stimulated PBMC culture; assay: Effect on allergen (birch) induced IL-5 production in PBMC culture (Example 2); settings: PBMC of four birch allergic rhinitis patients; birch extract 50 µg/ml; CM-C8-2010 20 µg/ml; 72 hours (FIG. 6)
Protocol: as §1
Trivalent acetylated monosaccharide coded CM-C4-2011 was used as a negative control. The PBMC were isolated and cultured as described above. Birch whole allergen extract was used at a concentration of 50 µg/ml and CM-C8-2010 at a concentration of 20 µg/ml. The cultures were incubated for 72 hours. Following stimulation, the production of IL-5 was measured with LINCOplex™-kits using Luminex100™ instrumentation.

[3] = tested on: allergen (birch) stimulated PBMC culture; assay: Comparison with prior art adjuvants in suppression of birch allergen-induced IL-4, IL-5 and IL-13 in PBMC (Example 3); settings: 24 hours; for Mean (SD) percentage of Birch induced cytokine response, IL-5: 15 subjects; for Mean (SD) percentage of Birch induced cytokine response, IL-13: 17 subjects; for Mean (SD) percentage of Birch induced cytokine response, IL-4: 19 subjects
Protocol: as §1
The effect of synthetic molecule according to the compound of formula (IV) of the invention coded CM-C8-2010 on the production of IL-4, IL-5 and IL-13, the main Th2-type cytokines promoting allergic inflammation, was studied in an allergen (birch) stimulated PBMC culture of 26 birch allergic patients with allergic rhinitis. The effect was compared to that of 3-deacylated monophosphoryl lipid A (MPL), the non-toxic derivative of lipopolysaccharide of Salmonella minnesota (LPS), and immunostimulatory bacterial DNA sequence (CpG-ODN-1). These molecules have been clinically successfully tested as adjuvants in allergen immunotherapy. Another bacterial DNA sequence (CpG-ODN-2) without immunostimulatory activity was used as a negative control. The PBMC were collected during a strong birch pollen season, were isolated and cultured as described above. Birch whole allergen extract was used at a concentration of 50 µg/ml and CM-C8-2010 at concentrations 200 and 20 µg/ml. CpG-ODN-1 and CpG-ODN-2 were used at a concentration 5 µg/ml and MPL at a concentration 10 µg/ml based on earlier published experiments. The cultures were incubated for 24 hours. Following stimulation, the productions of IL-4, IL-5 and IL-13 were measured with LINCOplex™-kits using Luminex100™ instrumentation. For analysis only the cultures with strong induced cytokine responses were included.

[4] = tested on: peripheral blood mononuclear cells (PBMC); assay: Induction of cytokines by synthetic oligosaccharide RP-I-82 in PBMC (Example 4); settings: PBMC of three subjects, 24 hours
Protocol: as §1
The synthetic oligosaccharide coded RP-I-82 was tested for the production of cytokines IL-4, IL-5, IL-10, IL-13, TNF and IFN-γ, in peripheral blood mononuclear cells (PBMC) samples of three subjects. The PBMC were stimulated by adding solubilized oligosaccharide in cell culture suspension. The synthetic oligovalent 3-1,2-linked oligosaccharide used in this example was a molecule according to the compound of formula (IV) of the invention (coded RP-I-82). A positive control was acid hydrolyzed Candida albicans mannan (CAM). The cytokine responses from PBMC were detected 24 hours after beginning of the stimulation by measuring cytokine secretion with high-sensitivity human cytokine LINCOplex™-kits (LINCO Research, St. Charles, Mo., USA) using Luminex^100™ instrumentation. The assays were performed in accordance with the manufacturer's protocol by employing Luminex technology.

[5] = PBMC of birch allergic patients

## CC(=O)OCC1O[C@@H](OC2C(OC(C)=O)[C@H](OC(C)=O)C(COC(C)=O)O[C@@H]2OCCn2cc(COCC(COCc3cn(CCO[C@H]4OC(COC(C)=O)[C@@H](OC(C)=O)C(OC(C)=O)C4O[C@@H]4OC(COC(C)=O)[C@@H](OC(C)=O)C(OC(C)=O)C4OC(C)=O)nn3)OCc3cn(CCO[C@H]4OC(COC(C)=O)[C@@H](OC(C)=O)C(OC(C)=O)C4O[C@@H]4OC(COC(C)=O)[C@@H](OC(C)=O)C(OC(C)=O)C4OC(C)=O)nn3)nn2)C(OC(C)=O)C(OC(C)=O)[C@@H]1OC(C)=O (stereo partly drawn) [CM-C8-2010, 1,2,3-tris[1-[(2,3,4,6-tetra-O-acetyl-β-D-mannopyranosyl)-(1→2)-(3,4,6-tri-O-acetyl-α-D-mannopyranosyloxyethyl)]-4-[methyl-1-oxy]triazolyl]propane]
[1]
  production of IFN-γ (inducer strength): strong inducer
  production of IL-10 (inducer strength): strong inducer
[1]; listed as formula (IV)
  production of IFN-γ (inducer strength): most active substance
  production of IL-10 (inducer strength): most active substance
[2]
  suppression of birch allergen induced IL-5 response: effectively suppressed
[3]; 20 μg/ml
  Mean (SD) percentage of Birch induced cytokine response, IL-5: 86.0 (25.9) %
  Mean (SD) percentage of Birch induced cytokine response, IL-13: 85.9 (97.5) %
  Mean (SD) percentage of Birch induced cytokine response, IL-4: 90.8 (22.7) %
[3]; 200 μg/ml
  Mean (SD) percentage of Birch induced cytokine response, IL-5: 70.6 (22.6) %
  Mean (SD) percentage of Birch induced cytokine response, IL-13: 58.5 (48.0) %
  Mean (SD) percentage of Birch induced cytokine response, IL-4: 78.6 (24.3) %
[3]; [5]
  suppression of birch allergen induced IL-4 response (in words): more effectively than CpG-ODN-1 or MPL
  suppression of birch allergen induced IL-5 response (in words): more effectively than CpG-ODN-1 or MPL
  suppression of birch allergen induced IL-13 response (in words): more effectively than CpG-ODN-1 or MPL

## CC(=O)OC[C@H]1O[C@@H](O[C@@H]2[C@@H](OCCCn3cc(COCC(COCc4cn(CCCO[C@H]5O[C@H](COC(C)=O)[C@@H](OC(C)=O)[C@H](OC(C)=O)[C@@H]5O[C@@H]5O[C@H](COC(C)=O)[C@@H](OC(C)=O)[C@H](OC(C)=O)[C@@H]5OC(C)=O)nn4)OCc4cn(CCCO[C@H]5O[C@H](COC(C)=O)[C@@H](OC(C)=O)[C@H](OC(C)=O)[C@@H]5O[C@@H]5O[C@H](COC(C)=O)[C@@H](OC(C)=O)[C@H](OC(C)=O)[C@@H]5OC(C)=O)nn4)nn3)O[C@H](COC(C)=O)[C@@H](OC(C)=O)[C@@H]2OC(C)=O)[C@@H](OC(C)=O)[C@@H](OC(C)=O)[C@@H]1OC(C)=O (stereo partly drawn) [RP-I-82, 1,2,3-tris[1-[(2,3,4,6-tetra-O-acetyl-β-D-mannopyranosyl)-(1→2)-(3,4,6-tri-O-acetyl-α-D-mannopyranosyloxypropyl)]-4-[methyl-1-oxy]triazolyl]propane]
[4]; 20 μg/ml
  Production of cytokines, mean (SD), IFN-γ: 10 (15) pg/ml
  Production of cytokines, mean (SD), IL-4: 2.6 (0.8) pg/ml
  Production of cytokines, mean (SD), IL-5: 0.1 (0.2) pg/ml
  Production of cytokines, mean (SD), IL-10: 110 (109) pg/ml
  Production of cytokines, mean (SD), IL-13: 0.6 (0.2) pg/ml
  Production of cytokines, mean (SD), TNF: 52 (26) pg/ml
[4]; 200 μg/ml
  Production of cytokines, mean (SD), IFN-γ: 18 (25) pg/ml
  Production of cytokines, mean (SD), IL-4: 2.7 (0.2) pg/ml
  Production of cytokines, mean (SD), IL-5: 0.2 (0.2) pg/ml
  Production of cytokines, mean (SD), IL-10: 843 (253) pg/ml
  Production of cytokines, mean (SD), IL-13: 0.5 (0.0) pg/ml
  Production of cytokines, mean (SD), TNF: 295 (146) pg/ml
[4]
  IFN-γ production, inducer strength (in words): moderate inducer
  IL-4 production (in words): not seen at all
  IL-5 production (in words): not seen at all
  IL-10 production, inducer strength (in words): strong inducer; also recorded: considerably higher than for the control
  IL-13 production (in words): not seen at all
  TNF production, inducer strength (in words): strong inducer; also recorded: considerably higher than for the control
  pattern of cytokine induction in comparison to the blank sample (no stimulation): selective induction
